Test results taken from US20250084060A1, “PRMT5 INHIBITORS AND METHODS OF TREATMENT” (HANGZHOU UNOGEN BIOTECH, LTD., priority 2022, published 2025).

Key:
[1] = Mouse Pharmacokinetic Studies; type: in vivo; conditions: male BALB/c mice, 3 mg/kg IV tail bolus, plasma
Description: Samples were obtained from 3 male BALB/c mice at staggered time points. Each mouse was given a tail bolus injection of 3 mg/kg injection of Compound 70 formulated as an IV solution with DMSO: PEG400: Aqueous solution with 20% HP-β-CD (5:30:65, v:v:v) (adjusted by 1N HCl). Blood samples (collected into lithium heparin tubes) were obtained at predose, and at 5, 15, 30 min and at 1, 2-, 4-, 8- and 24-hour, post injection. Plasma was separated from blood and stored at −20° C. prior to analysis. Samples were assayed by a LC/MS/MS procedure [AB Sciex API 4000; ACE Excel 5 C4 Column (50 mm*2.1 mm); Mobile Phase A: 5 mM NH4OAc (with 0.05% FA); Mobile Phase B: ACN (with 0.1% FA)]. Pharmacokinetic parameters were obtained from plasma concentrations using the R program—PK Package, Basic Non-Compartmental Pharmacokinetics, Thomas Jaki and Martin J. Wolfsegger Version 1.3-3, Jan. 6, 2016.

Z-138 cells = test: Z138 Cell Proliferation Assay; type: cell-based; conditions: Z-138 human mantle cell lymphoma cells, 72 hours, CTG readout
Description: Human Mantle Cell Lymphoma
Z-138 cells were plated in a 96-well plate in IMDM medium containing 10% Horse Serum and PenStrep at a density of 10,000 cells/well. The plates were incubated at 37° C. in a humidified, 5% CO2 incubator. The next day, serially diluted compounds were added in duplicates for 72 hours. Compounds were tested at 10, 2.5, 0.625, 0.156, 0.039, 0.010 0.002 and 0 uM final concentrations. After 72 hours of compound addition, […] of Promega's CTG assay reagent was added and incubated at room temperature for 10 minutes. Chemiluminescence was read using a GloMax Discover instrument.

PRMT5 = PRMT5 (Homo sapiens (Human), UniProt O14744); test: PRMT5 Chemiluminescent Assay; type: biochemical; conditions: PRMT5 chemiluminescent assay kit (BPS Bioscience), histone H4 peptide substrate, eight-point dose response
Description: The PRMT5 activity is measured by using “PRMT5 Chemiluminescent Assay Kit” from BPS Bioscience, Catalog Number 52002L as per the instructions of the manufacturer. Briefly, the PRMT5 enzyme is incubated with S-adenosylmethionine in a 96-well plate precoated with histone H4 peptide substrate. Next, a highly specific antibody that recognizes methylated R3 residue of Histone H4 is added followed by a horseradkish peroxidase-labeled (HRP-labeled) secondary antibody. Detection is done by the addition of the HRP substrate to produce chemiluminescence that can be measured quantitatively.
Compounds were serially diluted 3-fold and dosed from 10 uM down to 0 uM. Compounds were tested in duplicates to generate an eight-point dose response for the calculation of their IC50s.

PRMT5, sequence (O14744 2-637): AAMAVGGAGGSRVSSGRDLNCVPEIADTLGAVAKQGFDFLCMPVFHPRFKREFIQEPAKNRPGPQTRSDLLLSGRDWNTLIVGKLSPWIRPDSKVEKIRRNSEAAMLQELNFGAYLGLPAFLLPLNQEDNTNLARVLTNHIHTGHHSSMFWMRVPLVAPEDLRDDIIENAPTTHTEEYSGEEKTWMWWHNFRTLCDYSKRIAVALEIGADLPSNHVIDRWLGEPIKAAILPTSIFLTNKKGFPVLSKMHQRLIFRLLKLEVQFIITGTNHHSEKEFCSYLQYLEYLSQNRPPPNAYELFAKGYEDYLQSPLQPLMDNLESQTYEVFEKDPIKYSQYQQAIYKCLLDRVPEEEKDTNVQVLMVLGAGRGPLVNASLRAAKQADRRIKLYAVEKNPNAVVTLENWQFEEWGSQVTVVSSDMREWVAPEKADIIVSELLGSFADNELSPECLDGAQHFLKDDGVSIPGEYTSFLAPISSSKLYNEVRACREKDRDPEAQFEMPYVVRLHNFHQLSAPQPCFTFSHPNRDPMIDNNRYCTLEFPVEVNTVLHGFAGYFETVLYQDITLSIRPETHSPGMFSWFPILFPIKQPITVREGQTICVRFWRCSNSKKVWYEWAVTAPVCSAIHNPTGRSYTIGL
PRMT5, sequence (Q9BQA1 2-342 partner): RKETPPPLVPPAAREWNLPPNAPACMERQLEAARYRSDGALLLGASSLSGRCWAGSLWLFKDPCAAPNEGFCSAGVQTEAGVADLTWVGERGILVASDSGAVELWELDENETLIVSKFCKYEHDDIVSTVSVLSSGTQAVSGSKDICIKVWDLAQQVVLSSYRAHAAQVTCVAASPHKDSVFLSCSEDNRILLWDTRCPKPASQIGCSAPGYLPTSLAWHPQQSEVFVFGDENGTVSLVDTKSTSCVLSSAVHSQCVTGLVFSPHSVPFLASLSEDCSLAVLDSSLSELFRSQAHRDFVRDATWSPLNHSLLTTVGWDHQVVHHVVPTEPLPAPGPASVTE

AUC(0-inf) [1]: 748 ng·h/mL | C0 [1]: 1520 ng/mL | MRT inf [1]: 1.22 h | clearance [1]: 66.9 mL/min/kg | half-life [1]: 93.6 min | Vd ([1]; read-out: Vss): 4.88 L/kg | IC50 Values (PRMT5): <0.014 μMolar
SMILES: CC(C)Cn1c(=O)n(C[C@H](O)CN2CCc3ccccc3C2)c(=O)c2ccc(Br)cc21 [Compound 70, 7-bromo-3-[(2R)-3-(3,4-dihydro-1H-isoquinolin-2-yl)-2-hydroxy-propyl]-1-isobutyl-quinazoline-2,4-dione]
IC50 (Z-138 cells): 673 nM
